Columns and labels:
[1] = system: GAL4 DBD-CfEcR(DEF)/VP16AD-MmRXRE; details: CHO 13B3 clone, 48 h, average of two wells
Source text: GAL4 DBD-CfEcR(DEF)/VP16AD-MmRXRE: The wild-type D, E, and F domains from spruce budworm Choristoneura fumiferana EcR (“CfEcR-DEF”; SEQ ID NO: 1) were fused to a GAL4 DNA binding domain (“Gal4DBD1-147”; nucleotides 31 to 471 of SEQ ID NO: 2) and placed under the control of the SV40e promoter of pM vector (PT3119-5, Clontech, Palo Alto, Calif.). The D and E domains from Mus Musculus RXR (“MmRXR-DE”; SEQ ID NO: 22) were fused to the transactivation domain from VP16 (“VP16AD”; SEQ ID NO: 5) and placed under the control of the SV40e promoter of the pVP16 vector (PT3127-5, Clontech, Palo Alto, Calif.).
CHO cells were transiently transfected with transcription cassettes for GAL4 DBD-CfEcR(DEF) and for VP16AD-MmRXRE controlled by SV40e promoters. Stably transfected cells were selected using Hygromycin. Individually isolated CHO cell clones were transiently transfected with a GAL4 RE-luciferase reporter (pFR-Luc, Stratagene, La Jolla, Calif.). The 13B3 clone was selected using Zeocin.
Cells were trypsinized and diluted to a concentration of 2.5×10^4 cells mL. 100 μL of cell suspension was placed in each well of a 96 well plate and incubated at 37° C. under 5% CO2 for 24 h. Ligand stock solutions were prepared in DMSO and diluted 300 fold for all treatments.
Luciferase reporter gene expression was measured 48 h after cell treatment using Bright-Glo™ Luciferase Assay System from Promega (E2650). Luminescence was detected at room temperature using a Dynex MLX microtiter plate luminometer.
Each assay was conducted in two separate wells, and the two values were averaged. Fold inductions were calculated by dividing relative light units (“RLU”) in ligand treated cells with RLU in DMSO treated cells.

Gal4DBD/AaEcR (DEF) = target: T1, Gal4DBD/AaEcR (DEF) (Aedes aegypti, UniProt P49880); assay: cell-based; type: cell-based; details: 33 μM; 3T3 cells; 48 h; average of two wells
T1 construct: The wildtype D, E, and F domains from mosquito Aedes aegypti EcR; expressed in transfected cells; host or cells: 3T3 cells
How it was run: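 Single-dose ligand testing at 33 μM, applied in serum medium after 4 h transfection. Host was 3T3 cells carrying Gal4DBD/AaEcR (DEF) plus a 5× GAL4 RE-driven firefly luciferase reporter (pFRLuc).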

[2] = target: T2, Bombyx mori EcR (VP16-BmEcR, CVBE) (Bombyx mori, UniProt P49881); assay: Z3 assay (HEK-293 clone Z3 with CVBE and 6x EcRE LacZ, β-galactosidase reporter); type: cell-based; details: 48 h, average of two wells
T2 construct: expressed in transfected cells
T2 sequence (P49881 86-606): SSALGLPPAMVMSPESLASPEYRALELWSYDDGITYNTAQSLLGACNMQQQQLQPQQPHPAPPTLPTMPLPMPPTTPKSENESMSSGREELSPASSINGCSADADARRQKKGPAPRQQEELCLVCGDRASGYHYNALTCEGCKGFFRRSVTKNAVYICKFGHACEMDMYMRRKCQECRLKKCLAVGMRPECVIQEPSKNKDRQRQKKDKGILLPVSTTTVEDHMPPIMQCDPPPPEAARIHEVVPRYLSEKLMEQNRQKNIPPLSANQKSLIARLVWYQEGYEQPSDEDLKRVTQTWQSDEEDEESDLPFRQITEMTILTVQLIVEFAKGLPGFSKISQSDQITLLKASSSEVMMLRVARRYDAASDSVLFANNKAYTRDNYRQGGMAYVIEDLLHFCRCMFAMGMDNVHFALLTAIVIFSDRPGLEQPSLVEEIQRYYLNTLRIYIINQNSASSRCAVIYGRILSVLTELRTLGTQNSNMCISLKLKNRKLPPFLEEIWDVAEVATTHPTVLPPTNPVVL

T1 sequence (P28704 286-520 A311G/G315S/G445S/I449V): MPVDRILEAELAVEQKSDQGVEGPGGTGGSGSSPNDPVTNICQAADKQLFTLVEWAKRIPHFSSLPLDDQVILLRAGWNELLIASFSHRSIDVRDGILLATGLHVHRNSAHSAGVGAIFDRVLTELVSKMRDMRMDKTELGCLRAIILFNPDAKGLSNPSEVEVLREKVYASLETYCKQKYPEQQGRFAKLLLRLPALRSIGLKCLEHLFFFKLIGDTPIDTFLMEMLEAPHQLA
T1 sequence (P49880 405-776): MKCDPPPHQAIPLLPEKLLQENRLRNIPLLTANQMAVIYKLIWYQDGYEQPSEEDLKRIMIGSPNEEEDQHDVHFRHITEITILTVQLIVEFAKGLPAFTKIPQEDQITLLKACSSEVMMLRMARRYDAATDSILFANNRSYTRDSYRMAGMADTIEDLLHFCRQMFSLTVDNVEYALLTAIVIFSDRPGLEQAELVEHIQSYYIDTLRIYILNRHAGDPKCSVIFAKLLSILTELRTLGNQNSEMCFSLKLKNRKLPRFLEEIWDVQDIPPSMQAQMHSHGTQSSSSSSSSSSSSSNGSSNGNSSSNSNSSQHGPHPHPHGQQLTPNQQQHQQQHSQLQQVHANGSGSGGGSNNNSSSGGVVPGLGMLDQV

SMILES | Fold Induction Average, 13B3V1 Assay 33 μM [1] [fold] | Fold Induction Average, AA_3T3V1 Assay 33 μM (Gal4DBD/AaEcR (DEF)) [fold] | Fold Induction Average, Z3V1 Assay 33 μM [2] [fold]
Cc1ccc(C(=O)N2c3ccccc3C(Nc3ccccc3)CC2C)cc1 (mixture of isomers) [Compound I-39] | 1 | 182 | 4
Cc1ccc(C(=O)N2c3ccccc3C(Nc3ccccc3Cl)CC2C)cc1 (mixture of isomers) [Compound I-41] | 1 | 2 | 1
C[C@H]1C[C@H](Nc2ccccc2)c2ccccc2N1C(=O)c1ccc(F)c(F)c1 (relative stereo) [Compound I-15] | 1 | 132 | 20
Cc1ccc(C(=O)N2c3ccccc3[C@@H](Nc3ccccc3)C[C@@H]2C)cc1F (relative stereo) [Compound I-16] | 1 | 376 | 27
C[C@H]1C[C@H](Nc2ccccc2)c2ccccc2N1C(=O)c1ccc(C(F)(F)F)c(F)c1 (relative stereo) [Compound I-17] | 1 | 135 | 9
Cc1ccc(N[C@H]2C[C@H](C)N(C(=O)c3ccc(C)c(F)c3)c3ccc(C)cc32)cc1 (relative stereo) [Compound I-22] | 1 | 132 | 3
C[C@H]1C[C@H](Nc2ccc(F)cc2)c2cc(F)ccc2N1C(=O)c1ccc(F)c(F)c1 (relative stereo) [Compound I-26] | 95 | 124 | 152
C[C@H]1C[C@H](Nc2ccc(F)cc2)c2cc(F)ccc2N1C(=O)c1ccc(C(F)(F)F)c(F)c1 (relative stereo) [Compound I-27] | 6 | 112 | 119
Cc1ccc(N[C@@H]2C[C@H](C)N(C(=O)c3ccc(C)c(F)c3)c3ccc(C)cc32)cc1 (relative stereo) [Compound I-28] | 1 | 1 | 1
C[C@H]1C[C@@H](Nc2ccccc2)c2ccccc2N1C(=O)c1ccc2c(c1)OCO2 (relative stereo) [Compound I-31] | 1 | 48 | 1
COc1ccc(C=CC(=O)N2c3ccccc3[C@@H](Nc3ccccc3)C[C@@H]2C)cc1OC (relative stereo) [Compound I-146] | 1 | 4 | 1
COc1ccc(C(=O)N2c3ccc(C)cc3[C@H](Nc3ccc(C)cc3)C[C@@H]2C)cc1 (stereo in doubt) [Compound I-152] | 2 | 1 | 1
Cc1ccc(NC2CC(C)N(C(=O)c3ccc4c(c3)OCO4)c3ccc(C)cc32)cc1 (centres unmarked) [Compound I-34] | 1 | 1 | 1
COc1cccc(C(=O)N2c3ccccc3C(Nc3ccccc3)CC2C)c1C (centres unmarked) [Compound I-50] | 1 | 21 | 115
COc1cccc(C(=O)N2c3ccc(F)cc3C(Nc3ccc(F)cc3)CC2C)c1C (centres unmarked) [Compound I-58] | 30 | 124 | 147
CC(=O)N(c1ccccc1)C1CC(C)N(C(=O)C=Cc2ccccc2)c2ccccc21 (centres unmarked) [Compound I-119] | 3 | 1 | 1
COc1ccc(C(=O)N(c2ccccc2)C2CC(C)N(C(=O)c3ccc(Cl)cc3)c3ccccc32)cc1 (centres unmarked) [Compound I-120] | 1 | 249 | –
Cc1ccc(NC2CC(C)N(C(=O)c3ccc(F)cc3)c3ccc(C)cc32)cc1 (centres unmarked) [Compound I-124] | 3 | 1 | –
COc1ccc(C(=O)N2c3ccccc3C(N(C(=O)c3cccs3)c3ccccc3)CC2C)cc1 (centres unmarked) [Compound I-131] | 1 | 162 | 4
CCCCCc1ccc(C(=O)N2c3ccccc3C(Nc3ccccc3)CC2C)cc1 (centres unmarked) [Compound I-138] | 1 | 5 | 1
COc1cccc(N(C(C)=O)C2CC(C)N(C(=O)c3ccccc3)c3ccccc32)c1 (centres unmarked) [Compound I-140] | 2 | 1 | 1
Cc1ccc(NC2CC(C)N(C(=O)c3ccc(Cl)cc3)c3ccc(C)cc32)cc1 (centres unmarked) [Compound I-144] | 4 | 73 | 1
CC1CC(Nc2ccccc2)c2ccccc2N1C(=O)c1cccc(Br)c1 (centres unmarked) [Compound I-148] | 1 | 47 | 19
CC(=O)N(c1ccc(C)cc1)C1CC(C)N(C(=O)c2ccccc2)c2ccccc21 (centres unmarked) [Compound I-149] | 3 | 1 | –
Cc1ccc(C(=O)N(c2ccccc2)C2CC(C)N(C(=O)c3ccc(Cl)cc3)c3ccccc32)cc1 (centres unmarked) [Compound I-161] | 1 | 28 | –
CC(=O)N1c2ccccc2C(N(C(=O)c2ccccc2F)c2ccccc2)CC1C (centres unmarked) [Compound I-185] | 1 | – | 1
Cc1ccc(N(C(=O)c2ccc3c(c2)OCO3)C2CC(C)N(C(=O)c3ccc4c(c3)OCO4)c3ccc(C)cc32)cc1 (centres unmarked) [Compound I-194] | 1 | – | –

From patent US20050228016A1, “TETRAHYDROQUINOLINES FOR MODULATING THE EXPRESSION OF EXOGENOUS GENES VIA AN ECDYSONE RECEPTOR COMPLEX” (priority 2002, published 2005)
